In US10889609B2, “Mannitol-based amphipathic compound and use thereof” (Industry-University Cooperation Foundation Hanyang …, priority 2015, dated 2021):
Several values for one entry are separate records, joined by “and”; a condition that tells them apart may be missing. Equal entries are not always repeated.

How the values were obtained:
[1] = molecular target: T1, human β2 adrenergic receptor (β2AR) (Homo sapiens, UniProt P07550); assay: mBBr-β2AR bimane spectra at detergent concentration below CMC; format: biochemical; settings: detergent diluted to a fiftieth of its CMC, compared to DDM, FIG. 21
T1 construct: made in house
Procedure: Experiments for comparing the structural changes of the β2AR protein by the MNAs and DDM at a concentration below CMCs of the amphipathic molecules were performed.
Specifically, 0.5 μL of a non-ligand mBBr-labeled receptor dissolved at 50 μNI in a 20×CMC concentration of MNA-5, MNA-6, or MNA-7 was diluted with 500 μL of an NH buffer (20 mM HEPES pH 7.5, and 100 mM NaCl). The proteins were cultured for 30 minutes, and the bimane spectra thereof were measured. The receptor dissolved in 0.1% DDM was diluted with the NH buffer, and used as the control. Data was presented as an average of three separate experiments performed in triplicate.

[2] = molecular target: T1, human β2 adrenergic receptor (β2AR); assay: Bimane fluorescence spectra of mBBr-β2AR with ISO or ISO plus G-protein; format: biochemical; settings: combination of ISO and G-protein, FIG. 20
Procedure: Experiments for measuring the structural stabilities of a human β2 adrenergic receptor (β2AR), a G-protein-coupled receptor (GPCR), in the MNAs were performed.
Experiments for measuring the structural changes and structural stabilities of mBBr-β2AR by the MNAs (MNA-5, MNA-6, MNA-7) and DDM according to the presence or absence of a full agonist (isopreoterenol (ISO)) or a combination of ISO and G-protein were performed.
Specifically, β2AR dissolved in 0.1% DDM was purified according to the method disclosed in the article by D. M. Rosenbaum et al. (Science 2007, 318, 1266-1273) and then concentrated to a concentration of approximately 1 mg/mL. […] The mBBr-labeled β2AR was cultured for 30 minutes, and the mBBr spectra thereof were measured and compared to the spectra of the mBBr-labeled receptor dissolved in 0.1% DDM. The fluorescence of the mBBr-labeled β2AR was measured at 370 nm and thus determined by emission from 430 to 510 nm at 1-nm increments with 1 nm s^−1 integration using a Spex FluoroMax-3 spectrofluorometer (Jobin Yvon Inc.) which was run in a photon counting mode through a 4-nm emission bandwidth pass. mBBr dissolved in DDM was used as the positive control. […]

[3] = Hydrodynamic radius and size distribution of micelles by dynamic light scattering (DLS); format: physicochemical
Text: A method of measuring the radius of the micelle is not particularly limited, but the methods widely known in the related art may be used. For example, the radius of the micelle may be measured using a dynamic light scattering (DLS) experiment.
(§1) To determine characteristics of the MNAs of Preparative Example 1 to 10 synthesized according to the synthesis method of Example 1, the molecular weights (M.W.) and critical micellar concentrations (CMCs) of the MNAs and the hydrodynamic radii (Rh) of the formed micelles were measured.
(§2) Specifically, the critical micellar concentration (CMC) was measured using a hydrophobic fluorescence stain (diphenylhexatriene (DPH)), and the hydrodynamic radii (Rh) of the micelles formed by each of the preparations were measured by a dynamic light scattering (DLS) experiment. The measured results were compared to those of DDM that is a conventional amphipathic molecule (a detergent), and are listed in Table 1.
Meanwhile, the size distributions of the micelles formed by the MNAs were measured using DLS, and the measurement results are shown in FIG. 17. The MNAs were used at a content of 1.0% by weight.

boron transporter (Bor1) = molecular target: T2, boron transporter (Bor1) (Arabidopsis thaliana, UniProt Q8VYR7); assay: Structural stability and extraction of Bor1 by heat fluorescence size exclusion chromatography (hFSEC)
T2 construct: made in house; host or cells: Saccharomyces cerevisiae FGY217
Procedure: An experiment for measuring the structural stability of a boron transporter (Bor1) by the MNAs was performed. The structural stability of Bor1 was measured using heat fluorescence size exclusion chromatography (hFSEC), and the concentrations of the MNAs and DDM were CMC plus 0.04% by weight. Specifically, Bor1 of Arabidopsis thaliana was expressed in Saccharomyces cerevisiae FGY217 cells as a fusion protein having a C-terminal GFP-His tag. The cells were grown in a -URA medium supplemented with 0.1% glucose. Expression of proteins was induced by adding 2% galactose, and the cells were then cultured at 20° C. for 18 hours. Here, the cell culture was carried out according to the method described in the article by D. Drew et al. (Nat. Protoc. 2008, 3, 784-798.). The cells were collected to prepare membranes, and the cell collection was carried out according to the method described in the article by J. Leung et al. (Protein Expr. Purif. 2010, 72, 139-146.). The membranes including the Bor1-GFP fusion protein were diluted with phosphate-buffered saline (PBS, pH 7.4) until the final concentration of the total proteins reached 2.8 mg/mL. In this case, 1% by weight of DDM or 1% by weight of MNA (MNA-1, MNA-2, MNA-3, MNA-4, MNA-5, MNA-6, or MNA-7) was added to the PBS. Samples were incubated for an hour while shaking at 4° C., and insoluble materials were then removed by centrifugation at 14,000 g and 4° C. for an hour. The supernatant including the dissolved protein samples was heated at 40° C. for 10 minutes, and the strongly aggregated proteins were removed by centrifugation at 14,000 g and 4° C. for 10 minutes. 200 μL of the supernatant of the samples was injected into a Superose 6 10/300 column equilibrated with 20 mM Tris (pH 7.5), 150 mM NaCl, and 0.03% DDM. Each of elution fractions was collected in 200 μL fractions at a retention volume of 6.4 mL (e.g., 6.4 mL after elusion) in a clear bottom 96-well plate. The GFP fluorescence of each of the fractions was measured at an excitation wavelength of 470 nm and an emission wavelength of 512 nm.

[4] = Critical micellar concentration (CMC) by hydrophobic fluorescence stain diphenylhexatriene (DPH); format: physicochemical; settings: aqueous solution
Text: A method of measuring the CMC is not particularly limited, but the methods widely known in the related art may be used. For example, the CMC may be measured by a fluorescence detection method using diphenylhexatriene (DPH).
as §1, §2

T2 sequence (Q8VYR7 whole entry): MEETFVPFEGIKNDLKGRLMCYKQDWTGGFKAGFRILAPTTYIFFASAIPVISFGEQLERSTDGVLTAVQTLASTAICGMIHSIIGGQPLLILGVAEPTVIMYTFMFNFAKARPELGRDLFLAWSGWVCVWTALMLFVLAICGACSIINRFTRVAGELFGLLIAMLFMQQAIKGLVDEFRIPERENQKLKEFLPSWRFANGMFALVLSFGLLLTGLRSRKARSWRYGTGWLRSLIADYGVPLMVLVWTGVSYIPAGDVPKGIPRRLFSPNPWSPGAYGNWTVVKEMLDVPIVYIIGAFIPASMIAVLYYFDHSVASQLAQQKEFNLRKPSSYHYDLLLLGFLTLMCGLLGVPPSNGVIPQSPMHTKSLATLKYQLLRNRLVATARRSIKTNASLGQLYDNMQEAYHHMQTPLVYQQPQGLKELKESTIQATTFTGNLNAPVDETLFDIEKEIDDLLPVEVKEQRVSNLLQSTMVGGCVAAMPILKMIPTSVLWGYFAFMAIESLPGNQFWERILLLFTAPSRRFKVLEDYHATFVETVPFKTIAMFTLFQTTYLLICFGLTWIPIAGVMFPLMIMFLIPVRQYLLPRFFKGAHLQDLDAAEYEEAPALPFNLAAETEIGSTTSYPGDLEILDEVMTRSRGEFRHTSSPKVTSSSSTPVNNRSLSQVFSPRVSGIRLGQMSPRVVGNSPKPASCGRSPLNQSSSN
T1 sequence (P07550 whole entry): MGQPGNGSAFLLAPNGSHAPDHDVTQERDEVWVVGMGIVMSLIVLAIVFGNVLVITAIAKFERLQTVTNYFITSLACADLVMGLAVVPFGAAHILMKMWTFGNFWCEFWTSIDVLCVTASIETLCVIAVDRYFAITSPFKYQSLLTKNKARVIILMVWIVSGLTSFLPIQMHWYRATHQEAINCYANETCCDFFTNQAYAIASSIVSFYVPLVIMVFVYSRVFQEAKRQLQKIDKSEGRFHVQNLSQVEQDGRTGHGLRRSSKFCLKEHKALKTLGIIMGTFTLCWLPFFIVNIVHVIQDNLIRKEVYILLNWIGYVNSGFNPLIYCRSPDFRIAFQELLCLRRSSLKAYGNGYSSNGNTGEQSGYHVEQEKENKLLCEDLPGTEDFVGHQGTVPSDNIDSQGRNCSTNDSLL

In the case of `CCCCCCCCCCCCO[C@H]([C@@H](OCCCCCCCCCCCC)[C@H](CO[C@@H]1OC(CO)[C@@H](O)C(O)C1O)O[C@@H]1OC(CO)[C@@H](O)C(O)C1O)[C@H](CO[C@@H]1OC(CO)[C@@H](O)C(O)C1O)O[C@@H]1OC(CO)[C@@H](O)C(O)C1O` (stereo partly drawn) [MNA-5], the “stability of β2AR” value [1] is reported as “secured for a prolonged period of time”, the “bimane fluorescence spectra of mBBr-β2AR” value [2] is reported as “slightly higher fluorescence intensity than DDM” and the “Rh (nm), hydrodynamic radius of micelles” value [3] is reported as 3.0 nm and 3.0 ± 0.01 nm. The Bor1 extraction efficiency (boron transporter (Bor1); 1% by weight detergent, membranes with Bor1-GFP) was 60%, the “level of Bor1 protein aggregation after heat treatment” value (boron transporter (Bor1); hFSEC, 40° C. for 10 minutes, FIG. 18) was “lower level of Bor1 aggregation than DDM” and the “CMC” value [4] was roughly 0.004 mM.
